Assay in all cases: Kinase specificity assay (33P phosphoryl transfer, LCCA or AlphaScreen)
What all share (format): biochemical

In one experiment the target is KDR (Homo sapiens, UniProt P35968). The note with it: ATP close to KM; read-out: KDR inhibition, IC50. The procedure: Kinase activity and compound inhibition are investigated using one or more of the three assay formats described below. The ATP concentrations for each assay are selected to be close to the Michaelis-Menten constant (KM) for each individual kinase. Dose-response experiments are performed at 10 different inhibitor concentrations in a 384-well plate format.
The coating solution is aspirated and the plates are washed once with 50 μL of assay buffer and padded dry. […] The plates are subsequently washed 6-12 times with PBST or TBS buffer.

In a further experiment the target is Cdc2 (Homo sapiens, UniProt P06493). The note with it: ATP close to KM; read-out: Cdc2 inhibition, IC50. The procedure:
(§1) Kinase activity and compound inhibition are investigated using one or more of the three assay formats described below. The ATP concentrations for each assay are selected to be close to the Michaelis-Menten constant (KM) for each individual kinase. Dose-response experiments are performed at 10 different inhibitor concentrations in a 384-well plate format. The data are fitted to the following four-parameter equation: Y=Min+(Max−Min)/(1+(X/IC50)^H) where Y is the observed signal, X is the inhibitor concentration, Min is the background signal in the absence of enzyme (0% enzyme activity), Max is the signal in the absence of inhibitor (100% enzyme activity), IC50 is the inhibitor concentration at 50% enzyme inhibition and H represents the empirical Hill's slope to measure the cooperativity. Typically H is close to unity. ^33P Phosphoryl Transfer Assay:
(§2) Greiner 384-well white, clear bottom, high binding plates are coated with 2 μg/well of protein or peptide substrate in a 50 μL volume overnight at ambient temperature. The coating buffer typically contains 40 μg/mL substrate, 22.5 mM Na2CO3, 27.5 mM NaHCO3, 150 mM NaCl and 3 mM NaN3. The coating solution is aspirated and the plates are washed once with 50 μL of assay buffer and padded dry. Subsequently compounds and enzymes are mixed with γ^33P-ATP (3.3 μCi/nmol) in a total volume of 20 uL in suitable assay buffers. The mixture is incubated at ambient temperature for 1.5-2.5 hrs and terminated by aspiration using a Molecular Devices EMBLA 96-head plate washer. The plates are subsequently washed 6-12 times with PBST or TBS buffer. Scintillation fluid (50 μl/well) is then added, the plates are sealed and activity assessed by liquid scintillation spectrometry using a Perkin Elmer MicroBeta TriLux.
(§3) In the LCCA assays, kinase activity is measured as the percent ATP consumed following the kinase reaction using luciferase-luciferin-coupled chemiluminescence. Greiner 384-well white, clear bottom, medium binding plates are used for LCCA. Briefly, the kinase reaction is initiated by mixing compounds, ATP and kinase in a 20 uL volume. The mixture is incubated at ambient temperature for 2-4 hrs. At the end of the kinase reaction, a 20 uL luciferase-luciferin mix is added and the chemiluminescent signal is read using a Wallac Victor^2 reader. The luciferase-luciferin mix consists of 50 mM HEPES, pH 7.8, 8.5 ug/mL oxalic acid (pH 7.8), 5 (or 50) mM DTT, 0.4% Triton X-100, 0.25 mg/mL coenzyme A, 63 uM AMP, 28 ug/mL luciferin and 40,000 units of light/mL luciferase. For the LCCA assays, total ATP consumption has been standardized to 25-45% and the IC50 values correlates well with those determined by radiometric assays.
(§4) AlphaScreen technology is a proximity assay which utilizes the increase in fluorescent signal when donor and acceptor beads are close in proximity. Biotinylated poly(Glu,Tyr) 4:1 is used as the kinase substrate, in conjunction with streptavidin-coated donor beads and anti-phosphortyrosine antibody PY100-coated acceptor beads. Upon phosphorylation, the peptide substrate can bind to both donor and acceptor beads giving rise to an increase in fluorescence. Compounds, ATP, biotinylated poly(Glu, Tyr) and kinases are mixed in a volume of 20 uL for 1 hr at ambient temperature using Greiner 384-well white clear bottom medium binding plates. Following incubation a 10 uL solution containing […] AlphaScreen beads, 75 mM Hepes, pH 7.4, 300 mM NaCl, 120 mM EDTA, 0.3% BSA and 0.03% Tween-20 is added to each well. After 2-16 hr incubation of the beads, plates are read in a Perkin Elmer AlphaQuest reader. The IC50 values correlates well with those of radiometric assays.

For a further experiment, the target named is EGFR (Homo sapiens, UniProt P00533). The note with it: ATP close to KM; read-out: EGFR inhibition, IC50. The method, then: as §1, §2, §3, §4
The target in another experiment is EphA2R (Homo sapiens, UniProt P29317). The note with it: ATP close to KM; read-out: EphA2R inhibition, IC50. The method, then:
as §1, §2, §3, §4

The next experiment concerns the target ErbB2 (Homo sapiens, UniProt P04626). The note with it: ATP close to KM; read-out: ErbB2 inhibition, IC50. The procedure: as §1, §2, §3, §4
In a further experiment the target is Flt4 (Homo sapiens, UniProt P35916). The note with it: ATP close to KM; read-out: Flt4 inhibition, IC50. The method, then:
as §1, §2, §3, §4

The next experiment addresses IRK (Homo sapiens, UniProt P06213). The note with it: ATP close to KM; read-out: IRK inhibition, IC50. The method, then:
as §1, §2, §3, §4

Another experiment addresses PKA (Homo sapiens, UniProt P17612). The note with it: ATP close to KM; read-out: PKA inhibition, IC50. The procedure: as §1, §2, §3, §4
The target in a further experiment is PLK (Homo sapiens, UniProt P53350). The conditions noted are these: ATP close to KM; read-out: PLK inhibition, IC50. The method, then: as §1, §2, §3, §4

Results on one molecule are retold here after patent publication US7704995B2 (Exelixis, Inc., priority 2003, dated 2010).

Chain of Flt4 (P35916 25-1363): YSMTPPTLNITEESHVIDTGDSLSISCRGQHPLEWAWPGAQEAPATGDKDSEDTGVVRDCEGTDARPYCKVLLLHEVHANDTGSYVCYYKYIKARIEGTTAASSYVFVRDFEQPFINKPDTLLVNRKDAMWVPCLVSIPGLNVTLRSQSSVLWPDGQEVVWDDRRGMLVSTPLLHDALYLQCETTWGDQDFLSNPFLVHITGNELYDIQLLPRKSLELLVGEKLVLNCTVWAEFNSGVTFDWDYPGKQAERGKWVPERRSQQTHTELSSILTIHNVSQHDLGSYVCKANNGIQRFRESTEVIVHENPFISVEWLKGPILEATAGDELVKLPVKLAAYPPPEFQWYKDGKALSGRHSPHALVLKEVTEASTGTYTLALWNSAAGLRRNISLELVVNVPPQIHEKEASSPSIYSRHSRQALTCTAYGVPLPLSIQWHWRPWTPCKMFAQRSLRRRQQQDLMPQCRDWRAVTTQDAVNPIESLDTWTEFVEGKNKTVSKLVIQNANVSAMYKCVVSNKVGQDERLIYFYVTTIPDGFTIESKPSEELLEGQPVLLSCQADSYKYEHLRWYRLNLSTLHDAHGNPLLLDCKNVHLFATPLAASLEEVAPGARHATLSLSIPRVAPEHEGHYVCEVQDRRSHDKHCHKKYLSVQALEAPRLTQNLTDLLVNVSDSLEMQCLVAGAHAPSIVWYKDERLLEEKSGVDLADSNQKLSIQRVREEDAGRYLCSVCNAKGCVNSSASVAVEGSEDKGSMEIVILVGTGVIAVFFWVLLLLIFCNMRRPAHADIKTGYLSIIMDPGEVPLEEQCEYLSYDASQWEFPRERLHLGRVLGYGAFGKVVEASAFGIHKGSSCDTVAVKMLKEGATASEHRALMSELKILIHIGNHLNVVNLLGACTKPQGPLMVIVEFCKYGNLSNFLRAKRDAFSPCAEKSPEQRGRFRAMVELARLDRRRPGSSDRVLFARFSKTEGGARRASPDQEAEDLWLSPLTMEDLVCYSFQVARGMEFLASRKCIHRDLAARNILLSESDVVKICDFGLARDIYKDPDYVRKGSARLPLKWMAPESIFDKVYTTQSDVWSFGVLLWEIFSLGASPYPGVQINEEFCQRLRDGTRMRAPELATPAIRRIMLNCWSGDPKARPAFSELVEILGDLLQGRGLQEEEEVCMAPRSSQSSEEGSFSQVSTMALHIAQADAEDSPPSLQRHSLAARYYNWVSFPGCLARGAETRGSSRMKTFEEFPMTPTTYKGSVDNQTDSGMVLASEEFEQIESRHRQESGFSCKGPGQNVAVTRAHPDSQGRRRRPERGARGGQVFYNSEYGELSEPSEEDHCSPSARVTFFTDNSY
Chain of IRK (P06213 28-1382): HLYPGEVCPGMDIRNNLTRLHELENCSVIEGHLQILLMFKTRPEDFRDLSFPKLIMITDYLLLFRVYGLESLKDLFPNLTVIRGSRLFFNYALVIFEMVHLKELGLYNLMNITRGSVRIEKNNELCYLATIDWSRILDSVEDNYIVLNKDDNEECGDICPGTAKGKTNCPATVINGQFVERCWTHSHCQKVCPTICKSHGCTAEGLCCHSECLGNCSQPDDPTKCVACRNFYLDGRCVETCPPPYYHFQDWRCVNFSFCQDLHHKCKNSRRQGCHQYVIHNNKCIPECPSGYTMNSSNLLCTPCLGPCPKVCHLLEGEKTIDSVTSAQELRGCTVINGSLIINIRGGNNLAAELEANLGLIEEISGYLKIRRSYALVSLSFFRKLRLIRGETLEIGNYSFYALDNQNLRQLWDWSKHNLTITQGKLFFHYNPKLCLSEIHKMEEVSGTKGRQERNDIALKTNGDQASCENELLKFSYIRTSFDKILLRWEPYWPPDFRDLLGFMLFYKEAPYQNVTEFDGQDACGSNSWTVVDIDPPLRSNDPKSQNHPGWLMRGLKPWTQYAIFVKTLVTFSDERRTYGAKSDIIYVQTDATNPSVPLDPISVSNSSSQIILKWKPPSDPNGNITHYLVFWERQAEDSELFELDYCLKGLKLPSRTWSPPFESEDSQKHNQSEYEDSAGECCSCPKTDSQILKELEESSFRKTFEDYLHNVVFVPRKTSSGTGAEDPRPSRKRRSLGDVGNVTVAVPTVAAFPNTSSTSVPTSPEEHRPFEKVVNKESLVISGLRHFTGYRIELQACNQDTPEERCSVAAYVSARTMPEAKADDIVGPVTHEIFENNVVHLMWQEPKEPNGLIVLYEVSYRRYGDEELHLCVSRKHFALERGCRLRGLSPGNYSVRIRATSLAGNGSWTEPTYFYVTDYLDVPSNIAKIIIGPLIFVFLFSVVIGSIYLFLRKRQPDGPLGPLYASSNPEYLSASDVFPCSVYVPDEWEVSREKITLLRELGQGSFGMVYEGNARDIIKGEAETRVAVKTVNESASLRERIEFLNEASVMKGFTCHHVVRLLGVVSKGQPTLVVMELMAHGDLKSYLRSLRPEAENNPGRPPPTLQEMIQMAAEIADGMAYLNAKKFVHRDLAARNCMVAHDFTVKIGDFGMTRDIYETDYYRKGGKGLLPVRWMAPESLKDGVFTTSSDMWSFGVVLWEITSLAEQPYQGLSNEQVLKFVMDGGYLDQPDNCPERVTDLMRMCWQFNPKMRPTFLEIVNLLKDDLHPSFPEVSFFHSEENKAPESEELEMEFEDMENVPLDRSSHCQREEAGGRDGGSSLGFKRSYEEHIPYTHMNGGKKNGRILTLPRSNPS
Chain of ErbB2 (P04626 23-1255): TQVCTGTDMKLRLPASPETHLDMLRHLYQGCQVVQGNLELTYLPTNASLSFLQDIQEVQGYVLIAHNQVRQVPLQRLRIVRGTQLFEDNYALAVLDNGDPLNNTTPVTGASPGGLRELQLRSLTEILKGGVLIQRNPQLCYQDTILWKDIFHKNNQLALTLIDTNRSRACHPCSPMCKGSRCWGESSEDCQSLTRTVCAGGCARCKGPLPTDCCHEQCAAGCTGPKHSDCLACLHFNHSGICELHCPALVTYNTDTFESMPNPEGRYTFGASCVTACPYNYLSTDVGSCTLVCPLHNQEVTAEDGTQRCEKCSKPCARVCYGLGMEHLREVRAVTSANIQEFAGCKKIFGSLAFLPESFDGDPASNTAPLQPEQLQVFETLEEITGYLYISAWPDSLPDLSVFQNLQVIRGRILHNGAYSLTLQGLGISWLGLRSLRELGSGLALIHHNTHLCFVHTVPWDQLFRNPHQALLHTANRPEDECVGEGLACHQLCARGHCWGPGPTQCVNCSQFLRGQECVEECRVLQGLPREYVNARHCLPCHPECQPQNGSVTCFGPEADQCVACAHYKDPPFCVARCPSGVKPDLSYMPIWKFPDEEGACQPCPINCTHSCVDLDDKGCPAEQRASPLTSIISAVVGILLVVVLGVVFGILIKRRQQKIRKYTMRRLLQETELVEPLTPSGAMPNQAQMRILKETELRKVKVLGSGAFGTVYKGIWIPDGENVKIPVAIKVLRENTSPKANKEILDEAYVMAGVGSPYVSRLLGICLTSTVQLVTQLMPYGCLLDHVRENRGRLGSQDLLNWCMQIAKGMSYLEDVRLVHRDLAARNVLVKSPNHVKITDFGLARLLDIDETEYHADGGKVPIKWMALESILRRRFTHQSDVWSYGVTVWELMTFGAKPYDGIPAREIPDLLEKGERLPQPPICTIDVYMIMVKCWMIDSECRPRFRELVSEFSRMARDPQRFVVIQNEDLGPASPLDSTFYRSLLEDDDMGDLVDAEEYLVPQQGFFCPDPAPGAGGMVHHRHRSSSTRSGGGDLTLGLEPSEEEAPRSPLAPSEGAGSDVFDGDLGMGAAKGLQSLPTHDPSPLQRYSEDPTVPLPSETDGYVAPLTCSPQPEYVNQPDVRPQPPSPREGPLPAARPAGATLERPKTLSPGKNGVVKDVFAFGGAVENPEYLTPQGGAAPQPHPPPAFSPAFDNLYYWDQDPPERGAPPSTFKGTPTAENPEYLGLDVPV
Chain of PLK (P53350 whole entry): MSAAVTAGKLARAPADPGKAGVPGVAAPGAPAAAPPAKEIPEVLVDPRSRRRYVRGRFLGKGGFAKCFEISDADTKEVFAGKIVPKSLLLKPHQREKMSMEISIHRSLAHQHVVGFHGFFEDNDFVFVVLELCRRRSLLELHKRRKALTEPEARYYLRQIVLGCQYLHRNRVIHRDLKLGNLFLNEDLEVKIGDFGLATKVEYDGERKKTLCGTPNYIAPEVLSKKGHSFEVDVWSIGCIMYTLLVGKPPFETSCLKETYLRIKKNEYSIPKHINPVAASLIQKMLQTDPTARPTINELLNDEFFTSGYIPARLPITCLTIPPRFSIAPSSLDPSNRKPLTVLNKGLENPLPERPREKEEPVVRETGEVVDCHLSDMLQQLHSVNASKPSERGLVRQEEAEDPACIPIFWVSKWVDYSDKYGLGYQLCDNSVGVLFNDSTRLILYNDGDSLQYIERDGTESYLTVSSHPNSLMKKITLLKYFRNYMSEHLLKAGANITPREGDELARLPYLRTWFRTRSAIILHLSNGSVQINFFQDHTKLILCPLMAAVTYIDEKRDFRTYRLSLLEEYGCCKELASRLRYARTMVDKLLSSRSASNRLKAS

Turning to `NC(=O)c1nc(-c2cccc3ccccc23)cnc1N` [Example 2, 3-Amino-6-naphthalen-1-ylpyrazine-2-carboxamide], the IC50 is 0.05 to 1 µM on KDR; at least 10 µM at Cdc2; at least 10 µM on EGFR; at least 10 µM at EphA2R; at least 10 µM on ErbB2; below 0.05 µM on Flt4. Further, the IC50 was at least 10 µM on IRK, 1 to 10 µM at PKA and 1 to 10 µM on PLK.
